Patent US10105305B2, “Compositions and methods for promoting skin regeneration and hair growth” (THE JOHNS HOPKINS UNIVERSITY, priority 2014, dated 2018)
Entries after “also recorded” stand apart in the source; their conditions may differ.

Columns and labels:
murine skin wounds = assay: Wound induced hair neogenesis (WIHN), regenerated hair follicles counted by CSLM; format: in vivo, mouse
Description: Wound Induced Hair Neogenesis (WIHN). All animal protocols are approved by the Johns Hopkins University Animal Care and Use Committee. C57BL/6J, B6; 129SF2/J and TLR3 null mice (B6; 129S1-Tlr3tm1Flv/J) were obtained from The Jackson Laboratory. Mixed strain (C57BL/6J×FVB/N×SJL/J) animals were provided by Dr. Jean Richa (University of Pennsylvania).
A 1 cm2 excisional full-thickness wounds to the level of skeletal muscle on the backs of 21-day old male and female mice was performed as previously described (Ito et al., 2007; Nelson et al., 2013). Numbers of regenerated hair follicles were quantified in the re-epithelialized skin by non-invasive confocal scanning laser microscopy (CSLM) as published (Fan et al., 2011). For all experiments, […] of “intervention” was injected into healing wound (under scab) or applied topically into open wound as shown in Table 1 below.
Treatments during WIHN assay. Recombinant mouse IL-6 protein (R&D Systems, Minneapolis, Minn.) and poly(I:C) (High Molecular Weight; InVivogen, San Diego, Calif.) was diluted in sterile PBS immediately prior to injection. Cucurbitacin I (Tocris Biosciences/R&D Systems, Minneapolis Minn.) was dissolved in 10% EtOH/PBS to a final concentration of 1 mg/mL prior to injection. RNase III enzyme (Life Technologies, Grand Island N.Y.) was diluted in supplied reaction buffer

[1] = test system: normal nonwounded murine skin; assay: Hair cycle in non-wounded murine skin after injection during telogen; format: in vivo; settings: poly (I:C) 200 ng/mouse injected during telogen
[2] = test system: neo-natal human epidermal keratinocytes (NHEK); assay: qRT-PCR gene expression in cultured keratinocytes (NHEK); format: cell-based
Description: Cell Culture. Neo-natal human epidermal keratinocytes (Lonza, Walkersville, Md.) or lab-isolated foreskin keratinocytes were cultured in keratinocyte medium with added supplements (KGMGOLD). Treatment with recombinant IL-6 protein (50 ng/mL), cucurbitacin I (10-100 nM), poly (I:C) (20 μg/mL) and TLR3 pharmacological inhibitor (80 μM; EMD Millipore, Billerica, Mass.) was applied in basal medium containing transferrin, hydrocortisone and antibiotics for up to 24 hours. After 24 hours, treatment medium was replaced with KGM-GOLD and isolation of RNA as indicated.
Nucleofection. Nucleofection with siGENOME SMARTpoo1 Human Tap63, TLR3, REL-A and siCONTROL siRNA duplex oligonucleotides (Dharmacon-ThermoFischer Scientific) was performed in NHEK using the Amaxa 4D-Nucleofector according to manufacturer's instruction. Plated cells were treated with recombinant human IL-6 (50 ng/mL) protein or poly(I:C) (20 μg/mL) for 24 hours. Afterwards, treatment medium was removed and replaced with KGMGOLD complete medium for the duration of the experiment. Levels of appropriate gene expression were assessed by qRT-PCR using inventoried TaqMan reagents in three independent experiments.
Quantitative Real-Time PCR (qRT-PCR). Mouse skin was harvested prior to wounding and throughout wounding as described (Nelson et al., 2013). RNA was isolated from NHEK with RNeasy Mini Kit (Qiagen, Valencia, Calif.) with DNase I digestion. qRT-PCR was performed for genes of interest and 18S or ribosomal protein, large PO (RPLP0) (housekeeping genes) using inventoried TaqMan reagents. Differences in gene expression were assessed by comparative ΔΔCT values with fold change calculations.

NHEK [3] = assay: Flow cytometry of KRT15 and vimentin in keratinocytes; format: cell-based, human
Excerpt: Flow Cytometry. Keratinocytes and fibroblasts were fixed, permeabilized (BD Cytofix/Cytoperm kit), and stained with antibodies against human vimentin (BD Pharmingen clone RV202) and KRT15 (Abam clone LHK15) labeled with a chromophore preconjugated to Fab (Zenon mouse IgG labeling kit). Data was collected on a dual-laser flow cytometer (BD FACSCalibur) followed by FlowJo 10 (TreeStar) software analysis.

NHEK [4] = assay: Immunocytochemistry: keratinocyte morphology and beta-catenin nuclear localization; format: cell-based, human; settings: 72 hours after 24 hours of poly (I:C) 20 μg/mL
Description: […] Fixed cells were incubated with primary antibodies overnight, appropriate Alexa Fluor secondary antibodies and counterstained using VectaShield DAPI mounting medium (Vector Labs, Burlingame, Calif.). Slides were imaged at 60× magnification using the Nikon C1si True Spectral Imaging Confocal Laser Scanning Microscope system (Cell Imaging Core Facility, Sidney Kimmel Comprehensive Cancer Center, Johns Hopkins, Baltimore, Md.). Cell morphology and beta-catenin nuclear localization were quantified using the CellProfiler image analysis software (www.cellprofiler.org) (Carpenter et al., 2006) from confocal images of nuclei.

[5] = test system: β-catenin and GLI2 promoters; assay: ChIP-qPCR of STAT3 occupancy at promoters in keratinocytes; format: cell-based, human; settings: poly (I:C) treated keratinocytes, N=5, p<0.05
Description: Chromatin Immunoprecipitation. Poly(I:C) treated and control keratinocytes were crosslinked in 1% formaldehyde for 10 minutes, followed by addition of glycine for 5 minutes to quench unreacted formaldehyde. Cells were processed with EZ-ChIP Kit (Millipore) according to the manufacturer's instructions. Crosslinked protein-DNA complexes were captured with rabbit anti-Stat3 or normal rabbit IgG (sc-482X; sc-2027X, SCBT) antibodies. Real-time quantitative PCR was performed to determine the relative abundance of the promoter DNA sequence, associated with Stat3. Primers are detailed in Expanded Experimental Methods. Primers and graphics were designed based on ENCODE data (UCSC Genome Browser).
ChIP. The amplicon for Gli2 promoter site 4 encompasses TTCCAGGAA (SEQ ID NO:2) on chr2: 121621123-121621782 in the Encode database. It was amplified with the primer sequences: a) forward: 5 […]3′ (SEQ ID NO:3); b) reverse: 5′TCCTGTTCACATTGACGCC3′ (SEQ ID NO:4). The amplicon for β-catenin promoter site 4 encompasses TTCCTGGAA (SEQ ID NO:5) on chr3: 41264037-41264357 in the Encode database. This was amplified with the primer sequences: a) forward: 5′[…]3′ (SEQ ID NO:6); b) reverse: 5′[…]3′ (SEQ ID NO:7).

[6] = in solution; cited from earlier work
[7] = 72 hours after 24 hours of poly (I:C) 20 μg/mL, NHEK
[8] = poly (I:C) 20 μg/mL treatment, NHEK
[9] = poly (I:C) 20 μg/mL, NHEK, 24 hours

Substance: Polyinosinic:polycytidylic acid [poly (I:C)]
- stimulatory effect on WIHN in TLR3 null mice (murine skin wounds; TLR3 KO mice, poly (I:C) 200 ng vs PBS, CSLM): abrogated
- number of regenerated follicles (WIHN) (murine skin wounds; wt mice, single poly (I:C) 200 ng injected into wound at WD3 vs PBS, CSLM ~WD20-24): greater number of regenerated follicles
- effect on hair cycle (anagen activation) in nonwounded skin [1]: does not affect the hair cycle; also recorded: no activation of anagen
- KRT15 mRNA expression [2, 7]: significantly increased
- vimentin (VIM) mRNA expression ([2]; following poly (I:C) 20 μg/mL for 24 hours, indicated time points, NHEK): continued to increase in a time-dependent fashion
- EDAR expression [2, 8]: increased
- GLI1 expression [2, 8]: increased
- LEF1 expression [2, 8]: up-regulated
- SHH expression [2, 8]: increased
- induction of IL-6 mRNA ([2]; poly (I:C) 20 μg/mL, NHEK, 6 hours): greater than 30 fold
- CBX4 expression [2, 9]: increase
- KRT1 expression [2, 9]: nearly complete loss
- filaggrin (FLG) expression [2, 9]: nearly complete loss
- E-cadherin epithelial marker ([2]; same conditions as vimentin, poly (I:C) treated NHEK): not reduced
- percentage of KRT15 expressing cells by FACS (NHEK [3]; [7]): nearly doubled
- vimentin protein expression by flow cytometry (NHEK [3]; poly (I:C) treated NHEK vs control keratinocytes and fibroblasts): intermediate between that of control keratinocytes and fibroblasts
- amount of nuclear β-catenin (NHEK [4]): doubled
- keratinocyte length-width ratio (NHEK [4]): near doubling
- keratinocyte morphology (NHEK [4]): long, spindle-like morphology
- STAT3 occupation of GLI2 promoter [5]: significant increase
- STAT3 occupation of β-catenin promoter [5]: significant increase

Substance: LL-37: 37 amino acid cathelicidin peptide, SEQ ID NO:1, residues 134-170 of hCAP18
- resistance to proteolytic degradation [6]: significantly resistant to proteolytic degradation in solution
